Source: US6825348B2, “Antiviral compounds” (Academia Sinica, priority 2002, dated 2004)

Experiments:
[1] = system: herpes simplex type 1 virus (HSV-1) (KOS); experiment: Inhibition of HSV-1 cytopathogenicity in Vero cell culture; assay type: cell-based; conditions: Vero cell culture; 50% inhibition of virus-induced cytopathogenicity; mean of duplicates; for 1:1 (W/W) mixtures IC50 refers to known antiviral drugs
[2] = system: herpes simplex type 2 virus (HSV-2) (G); experiment: Inhibition of HSV-2 cytopathogenicity in Vero cell culture; assay type: cell-based; conditions: 50% inhibition of cytopathogenicity, for 1:1 mixtures IC50 refers to known antiviral drugs
[3] = system: thymidine kinase-positive (TK+) varicella-zoster virus (YS); experiment: Inhibition of TK+ VZV cytopathogenicity in Vero cell culture; assay type: cell-based; conditions: Vero cell culture; 50% inhibition of cytopathogenicity; for 1:1 mixtures IC50 refers to known antiviral drugs
[4] = system: thymidine kinase-deficient (TK−) varicella-zoster virus (YS/R); experiment: microbe, parasite or virus in culture; assay type: cell-based; conditions: Vero cell culture; 50% inhibition of cytopathogenicity; for 1:1 mixtures IC50 refers to known antiviral drugs
[5] = system: human cytomegalovirus (AD-169); experiment: Inhibition of HCMV cytopathogenicity in Vero cell culture; assay type: cell-based; conditions: Vero cell culture; 50% inhibition of cytopathogenicity; for 1:1 mixtures IC50 refers to known antiviral drugs
HIV-1 (IIIB) = experiment: microbe, parasite or virus in culture; assay type: cell-based; conditions: MT4 cells, average of duplicates
HIV-2 (LAV-2) = experiment: Inhibition of HIV-2 cytopathogenicity in MT4 cells; assay type: cell-based, human immunodeficiency virus; conditions: MT4 cells, average of duplicates
[6] = system: moloney murine sarcoma virus (MSV); experiment: Inhibition of MSV cytopathogenicity in CEM cells (cell-protection assay); assay type: cell-based; conditions: CEM cells, average of duplicates
[7] = Lipophilicity, 1-octanol/water partition coefficient; conditions: P = [substrate]1-octanol/[substrate]H2O; phosphate buffer 0.10 M
[8] = Solubility in water (phosphate buffer, UV absorbance); conditions: phosphate buffer 0.10 M, pH 6.8, agitated 20 h

Which “IC50 HSV-1 (KOS)” value [1] does the source give for “[1-(Guanine-9-yl-ethoxy)methyl]phosphono-6-yl-(Z)-4-(ethylidene)-2,3-dimethoxy-Δ^a,b-butenolide [Compound 29]” here?
Its value is 0.42 µg/mL.

What about the “IC50 HSV-2 (G)” value [2] of the same substance?
Its value is 0.28 µg/mL.

And the “IC50 TK+VZV (YS)” value [3]?
The value was 0.0070 µg/mL.

And the “IC50 TK−VZV (YS/R)” value [4]?
The value was 0.0080 µg/mL.

And the “IC50 HCMV (AD-169)” value [5]?
Its value is 0.020 µg/mL.

What about the “IC50 HIV-1 (IIIB)” value (HIV-1 (IIIB)) of the same substance?
The value was 6.0 µg/mL.

What about the “IC50 HIV-2 (LAV-2)” value (HIV-2 (LAV-2)) of the same substance?
The value was 7.1 µg/mL.

What about the “IC50 MSV” value [6] of the same substance?
Its value is 0.020 µg/mL.

What about the “HeLa cell, concentration causing microscopically visible change or disruption in about 50% of the cell sheet” value (HeLa cells) of the same substance?
Its value is 8.8 µg/mL.

And the “Vero cell, concentration causing microscopically visible change or disruption in about 50% of the cell sheet” value (Vero cells)?
The value was 6.6 µg/mL.

What about the “MT4 cell, concentration reducing the number of viable uninfected cells by 50%” value (MT4 cells) of the same substance?
Its value is 14 µg/mL.

What about the “CEM cell, concentration reducing the number of viable uninfected cells by 50%” value (CEM cells) of the same substance?
Its value is 13 µg/mL.

And the “log P (1-octanol/water)” value [7]?
The value was 0.79.

What about the solubility in water [8] of the same substance?
The solubility in water was 2050 µg/mL.
